Assay results: patent US20230150932A1, “COMPOSITIONS FOR STABILIZING AN ISOTHIOCYANATE” (VIO CHEMICALS AG, priority 2020, published 2023)

Key:
[1] = left on bench for 6 months; HPLC
Description: In order to determine the structure of the major degradation impurity found in the present study (RRT 0.76) a sample of synthetically produced Sulforaphane was left on bench for 6 months.

[2] = Stability study by HPLC, storage under Conditions C (fridge-freezer, -15° C.); format: physicochemical; details: Conditions C -15° C.; for RRT 0.96: impurity; for RRT 0.76: thiourea degradation impurity
Procedure: (§1) The storage conditions studied in the present invention are of three types:
(§2) In all three above types of conditions, the storage media is a simple dark glass vial or round-bottomed flask. Each sample is blown with Argon before securing the cap. No further treatment regarding the atmosphere is performed. The vial is capped and secured by use of a commercially available appropriate means for sealing the cap, e.g. Parafilm. The storage media is not restrictive with respect to the present invention.
(§3) The Sulforaphane formulations were analyzed with HPLC (PDA/UV at 240 nm) using standards for identification and quantification purpose.
(§4) Take 1 mL of H3PO4 into a 1 L volumetric flask containing about 500 mL of water, dilute to the volume with water and mix well/Acetonitrile.
(§5) Transfer accurately about 20 mg of sample in to a 20 mL clean and dry volumetric flask. Dilute to the volume with diluent.
(§6) Sulphoraphane retention time is about 20 mins
(§7) Conditions A: bench (20-25° C.) Conditions B: fridge, 2-8° C. Conditions C: fridge-freezer, (−15) ° C.

[3] = diluted in water, heated at 80° C. for 24 hrs; HPLC
[4] = Stability study by HPLC, storage under Conditions A (bench, 20-25° C.); format: physicochemical; details: Conditions A 20-25° C.; for RRT 0.96: impurity; for RRT 0.76: thiourea degradation impurity
Procedure: as §1, §2, §3, §4, §5, §6, §7

percentage of impurity RRT 0.76 [1]: about 74.8% | Sulfone ([2]; 1 month): 3.4 | Sulforaphane ([2]; 1 month): 94.27 | RRT 0.96 ([2]; 1 month): 0.23 | RRT 0.76 ([2]; 1 month): 0.25 | Sulfone ([2]; 2 months): 3.42 | Sulforaphane ([2]; 2 months): 94.43 | RRT 0.96 ([2]; 2 months): 0.25 | RRT 0.76 ([2]; 2 months): 0.27 | Sulfone ([2]; 3 months): 3.44 | Sulforaphane ([2]; 3 months): 94.51 | RRT 0.96 ([2]; 3 months): 0.51 | RRT 0.76 ([2]; 3 months): 0.23 | Sulfone ([2]; 7 days): 3.38 | Sulforaphane ([2]; 7 days): 95.21 | RRT 0.96 ([2]; 7 days): 0.15 | Sulforaphane ([2]; 15 days): 97.23 | RRT 0.96 ([2]; 15 days): 0.03 | RRT 0.76 ([2]; 15 days): 0.62 | Sulfone ([2]; zero time): 3.40 | Sulforaphane ([2]; zero time): 94.74 | RRT 0.96 ([2]; zero time): 0.15 | RRT 0.76 ([2]; zero time): 0.01 | impurity RRT 0.76 detected (chromatographic purity) [3]: more than 93% | Sulfone ([4]; 1 month): 1.31 | Sulforaphane ([4]; 1 month): 36.35 | RRT 0.96 ([4]; 1 month): 3.88 | RRT 0.76 ([4]; 1 month): 29.16 | Sulfone ([4]; 2 months): 0.84 | Sulforaphane ([4]; 2 months): 24.51 | RRT 0.96 ([4]; 2 months): 3.95 | RRT 0.76 ([4]; 2 months): 34.37 | Sulfone ([4]; 3 months): 0.78 | Sulforaphane ([4]; 3 months): 19.98 | RRT 0.96 ([4]; 3 months): 4.11 | RRT 0.76 ([4]; 3 months): 38.38 | Sulfone ([4]; 7 days): 2.32 | Sulforaphane ([4]; 7 days): 65.48 | RRT 0.96 ([4]; 7 days): 2.62 | RRT 0.76 ([4]; 7 days): 15.87 | Sulfone ([4]; 15 days): 1.92 | Sulforaphane ([4]; 15 days): 53.28 | RRT 0.96 ([4]; 15 days): 3.20 | RRT 0.76 ([4]; 15 days): 21.61 | Sulfone ([4]; zero time): 3.40 | Sulforaphane ([4]; zero time): 94.74 | RRT 0.96 ([4]; zero time): 0.15 | RRT 0.76 ([4]; zero time): 0.01
SMILES: C[S+]([O-])CCCCN=C=S (stereo not drawn) [Comparative Example 3, 4-(methylsulfinyl)butylisothiocyanate]
